In data set [1] the test system is A549 cancer cells. Description: Intracellular ATP production. It is filed as cell-based, human. To be noted: A549, 10 μM, 12 h. The protocol:
(§1) Since ATP production is a significant consequence attributed to the dysfunction of mitochondrial energy production, we measured intracellular ATP levels after complex 3 treatment.
(§2) The ATP production assay kit (Haimen, Jiangsu, China) was used to measure intracellular ATP level according to the manufacturer's instructions. […] Detection was performed using the luminometer Orion II (Berthold DS, Bleichstr, Pforzheim, Germany).

For data set [2], the system named is NCI-H1299 cancer cells. Description: Intracellular ATP production. The data set is classed as cell-based, human. As to conditions: NCI-H1299, 10 μM, 12 h. The method, then:
as §1, §2

Data set [3] relates to Bax and Bcl-2. Description: Western blot of Bax and Bcl-2. It is filed as cell-based, human. To be noted: A549, 10 μM, 24 h, whole cell lysates. The method, then: (§3) The role of complex 3-induced autophagy in cell death was further analyzed (Figure 6). When A549 cancer cells were treated with complex 3 of 10 μM, the protein expression of LC3-II was increased (Figure 6A). […] Treatment with complex 3 for 24 h caused a 4.5-folds increase in cells undergoing autophagy (Figure 6C). […] Moreover, Bax and Bcl-2 expressions were measured by western blot analysis of whole cell lysates.
Lysates were centrifuged at 12,000 g for 0.5 h at 4°C. The concentrations of total proteins were measured using the BCA assay method with Varioskan spectrofluorometer and spectrophotometer (Thermo, Waltham, MA) at 562 nm. Protein (20–100 μg) prepared from the indicated cells was loaded per lane and electrophoresed in 8% or 10% sodium dodecyl sulfate polyacrylamide gel electrophoresis (SDS-PAGE), and then transferred onto polyvinylidene difluoride (PVDF) Immobilon-P membrane (Bio-Rad, USA) using a transblot apparatus (Bio-Rad, USA). The membranes were blocked with 5% (w/v) non-fat milk at 0.5 h at 37°C, followed by overnight incubation at 4°C with primary antibodies diluted in PBST. After washing with PBST, the membranes were incubated for 1 h with an IRDye´800 conjugated secondary antibody diluted 1:20000 in PBST, and the labeled proteins were detected with an Odyssey Scanning System (Li-COR., Lincoln, Nebraska, USA).
For orientation: In western blotting, separated proteins are transferred to a membrane and probed.

The subject of data set [4] is A549 and NCI-H1299 cancer cells. The data set is described as follows: Mitochondrial transmembrane potential (JC-1). The data set is classed as cell-based, human. As to conditions: A549 and NCI-H1299, 10 μM, 24 h. From the text: To further study the detailed process of apoptosis induced by complex 3 in NSCLC cells, we examined the mitochondrial membrane potential (ΔΨm), which is an important proapoptotic index for early apoptosis. We chose a mitochondria-specific and voltage-dependent fluorescent probe, JC-1, to observe whether there was loss in ΔΨm.
The electrical potential difference across inner mitochondrial membrane (ΔΨm) was monitored using the ΔΨm-specific fluorescent probe JC-1 (Molecular Probes Inc., Eugene, OR), a sensitive fluorescent dye. […] Red fluorescence is attributable to a potential-dependent aggregation in the mitochondria. Green fluorescence, reflecting the monomeric form of JC-1, appeared in the cytosol after mitochondrial membrane depolarization. Relative fluorescence intensities were monitored using the flow cytometry (FACSCalibur, Becton Dickinson), and analyzed by the software Modfit and Cell Quest (BD Biosciences, Franklin Lakes, NJ) with settings of FL1 (green) at 530 nm and FL2 (red) at 585 nm.

Data set [5] deals with A549 cells. Description: Quantification of apoptotic cells (annexin V/PI flow cytometry). It is filed as cell-based, human. The method, then:
as §3
To investigate the role of ROS in complex 3-induced cell death, the level of intracellular H2O2 was measured. […] Exposure of A549 cells to NAC reduced levels of LC3-II from 2.3- to 1.5-folds (Figure 8B). […] In parallel, the complex 3-induced increase ratio of Bax/Bcl-2 was suppressed by NAC (Figure 8E).
The mode of cell death was analyzed by flow cytometry with annexin V/propidium iodide (PI) double-staining to detect membrane events according to a previous study. After individual treatments, whole cells were collected in 4-(2-hydroxyethyl)-1-piperazineethanesulfonic acid (HEPES) buffer containing 10 mM HEPES (pH 7.4), 140 mM NaCl, and 2.5 mM CaCl2. Cells were subsequently stained with annexin V (2.5 μg/ml) and PI (2 ng/ml) for 20 min, followed by analysis by flow cytometry (Beckman Coulter). Cystograms of the four quadrants in the figure were used to distinguish normal (annexin V^−/PI^−), early apoptotic (annexin V^+/PI^−), late apoptotic(annexin V^+/PI^+), and necrotic cells (annexin V^−/PI^+). The sum of early apoptosis and late apoptosis is presented as total apoptosis.
In general terms: A flow cytometer gives signals particle by particle.

Data set [6] relates to A549 cells. The data set is described as follows: Cell-cycle analysis (PI staining, flow cytometry). It is filed as cell-based, human. To be noted: A549, 10 μM. The method, then:
(§4) With the untreated A549 and NCI-H1299 cells, the percentage of cells in the G1 phase was at 21.29%, 18.96% with 15.28%, 22.94% in the G2/M phase, respectively.
(§5) Cell cycle was analyzed by flow cytometry as described previously. Data were analyzed with FlowJo software (TreeStar, Inc.).

Data set [7] relates to NCI-H1299 cells. Description: Cell-cycle analysis (PI staining, flow cytometry). It is filed as cell-based, human. As to conditions: NCI-H1299, 10 μM. The method, then: as §4, §5
In data set [8] the test system is Herring sperm DNA. Description: DNA platination by EtBr fluorescence. To be noted: 0.01 mg/mL DNA, pH 7.4, 37°C, 24 h. The protocol:
The better cytotoxicity of complex 3 owing to the DNA platination could be detected in the presence of EtBr as a probe via fluorescent measurements, because their DNA platination could prevent the formation of EtBr-DNA complex, resulting in its stoichiometric loss of fluorescence.
Herring sperm DNA was dissolved in 10 mM phosphate buffer (pH 7.4) containing 10 mM NaClO4. The DNA concentration was determined by UV-vis spectra at 260 nm with an extinction coefficient of 6600 M^−1. The mixture of DNA with platinum complexes were incubated at 37°C in the dark. The fluorescence was measured in 0.4 M NaCl to avoid the second fixation site of EtBr to DNA. EtBr (0.04 mg/mL) was added to the 0.01 mg/mL DNA solution before the fluorescence measurement. Fluorescence spectra were recorded under following conditions: scan speed 2000 nm min^−1; excitation slit width was 5 nm and emission slit width was 10 nm. The excitation and emission wavelength was 530 nm and 592 nm, respectively.

A short description of data set [9]: Pharmacokinetics, Pt in rat plasma after intravenous administration. It is filed as in vivo, SD rats. The method, then:
The pharmacokinetic profile of complex 3 was performed as compared with cisplatin. […] A non-compartment model was applied to analyze changes of pharmacokinetic behaviors. […] The results could be attributed to the biodistribution of the complex 3 in normal tissues as well as retention in blood circulation.
0.6 ml of blood compounds were collected from orbital cavity at 5 min followed by 0.5, 1, 2, 4, 8, 12 and 24 h after intravenous administration, heparinized and then centrifuged at 4000 rpm for 20 min at 4°C. The supernatant plasma was collected for measurement of Pt content using ICP-MS. The apparent plasma half-life time was calculated using a Phoenix Win Nonlin 6.3 Program (Pharsight Cooperation, St. Louis Missouri, USA).

SMILES strings stand for the structures.

Consider two compounds from publication PMC5458179, “Oxidative DNA double strand breaks and autophagy in the antitumor effect of sterically hindered platinum(II) complexes in NSCLCs” (Oncotarget, 2017).

As to `CC(C)C[NH+]1[C@@H]2CCCC[C@H]2[NH+](CC(C)C)[Pt-2]12[O]C(=O)CC(=O)[O]2` (stereo partly drawn) [Complex 3], the “ATP level, % of untreated cells” value in [1] amounted to 19.95%; in [2], 31.89%. The “Bax and Bcl-2 protein levels” value in data set [3] was “Incremental changes in pro-apoptotic Bax and decreased changes anti-apoptotic Bcl-2 protein levels”. Besides, in data set [4], the “mitochondrial membrane potential (ΔΨm)” value is listed as “remarkable decrement of ΔΨm”. The percentage of apoptosis came out at 52.5% in [5] (A549, 10 μM complex 18 h, without NAC) and 34.2% in data set [5] (A549, 5 mM NAC 2 h pretreatment then 10 μM complex 18 h). Also, the “cell cycle phase blocked” value in [6] is “G2/M phases of A549 and NCI-H1299 were blocked strikingly”; in data set [7], “G2/M phases of A549 and NCI-H1299 were blocked strikingly”. The “percentage of cells in the G1 phase” value in data set [7] (72 h, untreated 18.96%) was found to be 60.29%. Besides, the “DNA platination, change of EtBr fluorescent intensity” value in data set [8] was “more fluorescent intensity change compared to complex 3a”. The “t1/2, Pt concentration-time profile in rat plasma” value in data set [9] (rat, in vivo, iv, 5 mg/kg) is listed as ~ 24.5 h.

`O=C1[O][Pt]2([NH][C@@H]3CCCC[C@H]3[NH]2)[O]C1=O` [Oxaliplatin, oxaliplatin, reference compound]: the “cell cycle phase blocked” value in [6] and in [7] was “S phases were blocked” each time. Besides, in [8], the “DNA platination, change of EtBr fluorescent intensity” value is on record as “a little loss of fluorescent intensity”. Moreover, the “t1/2, Pt concentration-time profile in rat plasma” value in data set [9] (rats, intravenous, 5 mg/kg oxaliplatin or equivalent dose) is reported as ~ 13.1 h.
